Data reported in PubChem BioAssay AID2060617 (Molecular Pharmacology Branch, DTP, NCI, 2025).

System: 485368-065-R4-J2-PDC spheroids with HUVEC/MSC, viability
Assay: Anticancer human tumor 485368-065-R4-J2-PDC patient-derived pancreatic carcinoma cell line growth inhibition [CLK]
Settings: for IC50: curve of first compound; for viability, T/C: stronger effect = lower value
Outline: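 Multi-cell-type spheroids combined patient-derived tumor cells with HUVEC endothelial cells and human mesenchymal stem cells. Paired agents were dosed in half-log steps down from about clinical Cmax, or from 10 microM where Cmax was unknown.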

[1] = second compound 0.0316 µM, first compound 0.0316 µM
[2] = second compound 0.0316 µM, first compound 0.1 µM
[3] = second compound 0.0316 µM, first compound 0.316 µM
[4] = second compound 0.0316 µM, first compound 1 µM
[5] = second compound 0.0316 µM, first compound 3.16 µM
[6] = second compound 0.0316 µM, first compound 10 µM
[7] = second compound 0.1 µM, first compound 0.0316 µM
[8] = second compound 0.1 µM, first compound 0.1 µM
[9] = second compound 0.1 µM, first compound 0.316 µM
[10] = second compound 0.1 µM, first compound 1 µM
[11] = second compound 0.1 µM, first compound 3.16 µM
[12] = second compound 0.1 µM, first compound 10 µM
[13] = second compound 0.316 µM, first compound 0.0316 µM
[14] = second compound 0.316 µM, first compound 0.1 µM
[15] = second compound 0.316 µM, first compound 0.316 µM
[16] = second compound 0.316 µM, first compound 1 µM
[17] = second compound 0.316 µM, first compound 3.16 µM
[18] = second compound 0.316 µM, first compound 10 µM
[19] = second compound 1 µM, first compound 0.0316 µM
[20] = second compound 1 µM, first compound 0.1 µM
[21] = second compound 1 µM, first compound 0.316 µM
[22] = second compound 1 µM, first compound 1 µM
[23] = second compound 1 µM, first compound 3.16 µM
[24] = second compound 1 µM, first compound 10 µM
[25] = second compound 3.16 µM, first compound 0.0316 µM
[26] = second compound 3.16 µM, first compound 0.1 µM
[27] = second compound 3.16 µM, first compound 0.316 µM
[28] = second compound 3.16 µM, first compound 1 µM
[29] = second compound 3.16 µM, first compound 3.16 µM
[30] = second compound 3.16 µM, first compound 10 µM
[31] = second compound 10 µM, first compound 0.0316 µM
[32] = second compound 10 µM, first compound 0.1 µM
[33] = second compound 10 µM, first compound 0.316 µM
[34] = second compound 10 µM, first compound 1 µM
[35] = second compound 10 µM, first compound 3.16 µM
[36] = second compound 10 µM, first compound 10 µM
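Also: spheroids exposed to compounds for seven days.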
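For viability, T/C in this document: 100% = DMSO vehicle control wells.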

For `C=CC(=O)N1CCN(c2nc(=O)n(-c3c(C)ccnc3C(C)C)c3nc(-c4c(O)cccc4F)c(F)cc23)C(C)C1` (stereo unspecified) + CNC(=O)c1ccc(Nc2nc(OC3CCCC3)c3c(-c4ccc5nc(C)oc5c4)c[nH]c3n2)c(OC)c1, the IC50 (second compound 0.0316 µM) was > 10 µM, the IC50 (second compound 0.1 µM) was > 10 µM and the IC50 (second compound 0.316 µM) was > 10 µM. The IC50 (second compound 1 µM) was > 10 µM, the IC50 (second compound 3.16 µM) was > 10 µM and the IC50 (second compound 10 µM) was > 10 µM. For the same compound, the viability, T/C [1] was 94%, the viability, T/C [2] was 110% and the viability, T/C [3] was 89.5%. For the same compound, the viability, T/C [4] was 103%, the viability, T/C [5] was 93.3% and the viability, T/C [6] was 98.9%. The viability, T/C [7] was 105%, the viability, T/C [8] was 98.5% and the viability, T/C [9] was 99.8%. The viability, T/C [10] was 109%, the viability, T/C [11] was 95.9% and the viability, T/C [12] was 88.8%. For the same compound, the viability, T/C [13] was 82%, the viability, T/C [14] was 92.5% and the viability, T/C [15] was 92.2%. It also gave a viability, T/C [16] of 95%, a viability, T/C [17] of 80.8% and a viability, T/C [18] of 72.8%. The viability, T/C [19] was 85%, the viability, T/C [20] was 87.9% and the viability, T/C [21] was 79.4%. For the same compound, the viability, T/C [22] was 82.8%, the viability, T/C [23] was 78.1% and the viability, T/C [24] was 75.7%. The viability, T/C [25] was 76.7%, the viability, T/C [26] was 69.7% and the viability, T/C [27] was 72.2%. It also gave a viability, T/C [28] of 73.8%, a viability, T/C [29] of 77.5% and a viability, T/C [30] of 69.8%. It also gave a viability, T/C [31] of 77.8%, a viability, T/C [32] of 76.4% and a viability, T/C [33] of 75%. It also gave a viability, T/C [34] of 74.4%, a viability, T/C [35] of 74.2% and a viability, T/C [36] of 67.4%.
`CCCS(=O)(=O)Nc1ccc(F)c(C(=O)c2c[nH]c3ncc(-c4ccc(Cl)cc4)cc23)c1F` + CNC(=O)c1ccc(Nc2nc(OC3CCCC3)c3c(-c4ccc5nc(C)oc5c4)c[nH]c3n2)c(OC)c1 was tested, and the IC50 (second compound 0.0316 µM) was > 10 µM, the IC50 (second compound 0.1 µM) was > 10 µM and the IC50 (second compound 0.316 µM) was > 10 µM. For the same compound, the IC50 (second compound 1 µM) was > 10 µM, the IC50 (second compound 3.16 µM) was > 10 µM and the IC50 (second compound 10 µM) was > 10 µM. The viability, T/C [1] was 92.6%, the viability, T/C [2] was 95.1% and the viability, T/C [3] was 93.2%. For the same compound, the viability, T/C [4] was 97.5%, the viability, T/C [5] was 91.6% and the viability, T/C [6] was 114%. For the same compound, the viability, T/C [7] was 100%, the viability, T/C [8] was 99.5% and the viability, T/C [9] was 95.9%. For the same compound, the viability, T/C [10] was 90.1%, the viability, T/C [11] was 98.3% and the viability, T/C [12] was 112%. The viability, T/C [13] was 90%, the viability, T/C [14] was 84.8% and the viability, T/C [15] was 87.9%. The viability, T/C [16] was 85.4%, the viability, T/C [17] was 95.9% and the viability, T/C [18] was 104%. For the same compound, the viability, T/C [19] was 83.5%, the viability, T/C [20] was 80.7% and the viability, T/C [21] was 85.7%. The viability, T/C [22] was 78.9%, the viability, T/C [23] was 89.7% and the viability, T/C [24] was 105%. The viability, T/C [25] was 70.7%, the viability, T/C [26] was 75.5% and the viability, T/C [27] was 85.4%. The viability, T/C [28] was 78.9%, the viability, T/C [29] was 95.2% and the viability, T/C [30] was 99.5%. The viability, T/C [31] was 75.7%, the viability, T/C [32] was 73.6% and the viability, T/C [33] was 86.7%. For the same compound, the viability, T/C [34] was 78.9%, the viability, T/C [35] was 90.1% and the viability, T/C [36] was 93.4%.
For `COC1C=CCC(C)C(C)S(=O)(=O)NC(=O)c2ccc3c(c2)N(CC2CCC21)CC1(CCCc2cc(Cl)ccc21)CO3` (stereo unspecified) + CNC(=O)c1ccc(Nc2nc(OC3CCCC3)c3c(-c4ccc5nc(C)oc5c4)c[nH]c3n2)c(OC)c1, the IC50 (second compound 0.0316 µM) was > 10 µM, the IC50 (second compound 0.1 µM) was > 10 µM and the IC50 (second compound 0.316 µM) was > 10 µM. For the same compound, the IC50 (second compound 1 µM) was > 10 µM, the IC50 (second compound 3.16 µM) was > 10 µM and the IC50 (second compound 10 µM) was > 10 µM. It also gave a viability, T/C [1] of 88.7%, a viability, T/C [2] of 82.8% and a viability, T/C [3] of 96.8%. It also gave a viability, T/C [4] of 105%, a viability, T/C [5] of 103% and a viability, T/C [6] of 85.9%. The viability, T/C [7] was 96%, the viability, T/C [8] was 99.7% and the viability, T/C [9] was 105%. It also gave a viability, T/C [10] of 96.4%, a viability, T/C [11] of 92.8% and a viability, T/C [12] of 91.3%. It also gave a viability, T/C [13] of 82.5%, a viability, T/C [14] of 77.9% and a viability, T/C [15] of 89.8%. The viability, T/C [16] was 89.7%, the viability, T/C [17] was 98.8% and the viability, T/C [18] was 102%. The viability, T/C [19] was 83.2%, the viability, T/C [20] was 74.1% and the viability, T/C [21] was 73.7%. The viability, T/C [22] was 74.9%, the viability, T/C [23] was 91.8% and the viability, T/C [24] was 105%. It also gave a viability, T/C [25] of 71.2%, a viability, T/C [26] of 69.7% and a viability, T/C [27] of 72.9%. It also gave a viability, T/C [28] of 68.4%, a viability, T/C [29] of 94.2% and a viability, T/C [30] of 102%. It also gave a viability, T/C [31] of 65.5%, a viability, T/C [32] of 68.6% and a viability, T/C [33] of 69.1%. The viability, T/C [34] was 66.7%, the viability, T/C [35] was 82.3% and the viability, T/C [36] was 85.9%.
